Results on 9 compounds are retold here after patent US8299074B2, “P38 MAP kinase inhibitors” (RespiVert Ltd., priority 2008, dated 2012).

Series [1] has as its system p38 MAPKs or JNKs. As to conditions: Kuma, Y. (2005); cited from earlier work.
For series [2], the system named is A/J mice. Description: Cigarette smoke model. Type of series: in vivo. As to conditions: 50 μg/mL (35 μl, bid) intra-nasally, cigarette smoke exposed mice. As to the method: Cigarette Smoke Model A/J mice (males, 5 weeks old) were exposed to cigarette smoke (4% cigarette smoke, diluted with compressed air) for 30 min/day for 11 days using a Tobacco Smoke Inhalation Experiment System for small animals (Model SIS-CS; Sibata Scientific Technology, Tokyo, Japan). Test substances were given intra-nasally (35 μL of solution in 50% DMSO/PBS) and therapeutically twice daily for 3 days after the final cigarette smoke exposure. Twelve hours after the last dosing, animals were anesthetized, the trachea cannulated and bronchoalveolar lavage fluid (BALF) was collected.

Series [3] concerns Dunkin-Hartley guinea-pigs. Description: Ovalbumin challenge/parainfluenza infection model. To be noted: nebulised 1.5 mg per day; sensitized animals treated with PIV3 medium; initial studies. Type of series: in vivo.
In series [4] the test system is mice. Description: LPS-induced neutrophils accumulation in mice. In kind it is in vivo.
Series [5] concerns U937 cells. Description: LPS-induced IL-8 release in U937 cells. In kind it is cell-based. To be noted: Homo sapiens, read-out: DU937 (LPS) IL-8 IC50. An outline of the steps:
(§1)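 U937 cells differentiated with PMA (100 ng/ml) for 48 to 72 hours, pre-treated with compound for 2 hrs, then stimulated with E. coli O111:B4 LPS for 4 hrs. Supernatant TNFα and IL-8 measured by sandwich ELISA; inhibition at each concentration versus vehicle control.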

The subject of series [6] is THP-1 cells. Description: LPS-induced TNF alpha release in THP-1 cells. In kind it is cell-based. To be noted: Homo sapiens. The method, then: LPS-Induced TNF Alpha Release in THP-1 Cells: Potency […] Coli; O111:B4, Sigma) for 4 hr and the supernatant collected for determination of TNFα concentration by sandwich ELISA (Duo-set, R&D systems). The inhibition of TNFα production was calculated at each concentration by comparison with vehicle control.

The subject of series [7] is Differentiated U937 cells. Description: MTT assay (cell viability). In kind it is cell-based, human. In short, it runs like this: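 Differentiated U937 cells pre-incubated with compound 4 h in 5% FCS or 24 h in 10% FCS; MTT read at 550 nm after DMSO solubilisation. Percentage loss of viability relative to 0.5% DMSO vehicle; apparent increases appear as negative percentages.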

In series [8] the test system is BEAS2B cells. Description: Poly I:C-induced ICAM-1 induction in BEAS2B cells. In kind it is cell-based. To be noted: Homo sapiens, BEAS-2B, read-out: BEAS2B (polyIC) ICAM1 IC50. An outline of the steps:
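Poly I:C (1 ug/ml) transfected into BEAS2B cells after 2 h compound pre-incubation. Surface ICAM-1 measured by cell-based ELISA 18 h post-transfection (HRP, OD450–655), corrected for cell number by OD595.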

For series [9], the target named is T1, p38 MAPK alpha (MAPK14) (Homo sapiens, UniProt Q16539).
T1 construct: purchased Invitrogen
T1 sequence (Q16539 whole entry): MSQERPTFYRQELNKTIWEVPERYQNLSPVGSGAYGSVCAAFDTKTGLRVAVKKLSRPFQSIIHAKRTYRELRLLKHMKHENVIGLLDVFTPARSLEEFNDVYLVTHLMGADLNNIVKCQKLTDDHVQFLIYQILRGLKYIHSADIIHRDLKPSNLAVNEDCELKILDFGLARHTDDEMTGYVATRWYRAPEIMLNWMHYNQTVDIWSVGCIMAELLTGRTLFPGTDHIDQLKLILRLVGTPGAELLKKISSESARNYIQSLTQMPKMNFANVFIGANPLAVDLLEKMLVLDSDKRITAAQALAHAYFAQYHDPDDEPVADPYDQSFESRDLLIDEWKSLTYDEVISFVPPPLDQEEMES
Description: Enzyme inhibition assay, p38 MAPK alpha (FRET, Z-LYTE, via MAPKAP-K2). Type of series: biochemical. As to conditions: read-out: Enzyme p38α IC50.

Series [10] has as its system U937 cells. Description: LPS-induced TNF alpha release in U937 cells. Type of series: cell-based. In short, it runs like this: as §1
The mark [11] stands for this setting: THP-1, Table 3, read-out: THP-1 (LPS) TNFα IC50.
Where [12] appears, read: Table 3, first MTT column, loss of cell viability at 1 μg/ml.
Where [13] appears, read: Table 3, second MTT column, loss of cell viability at 1 μg/ml.
Where [14] appears, read: Homo sapiens; read-out: DU937 (LPS) TNFα REC50.
The mark [15] stands for this setting: THP-1, Table 2, read-out: THP-1 (LPS) TNFα IC50.
[16] abbreviates: Table 2, loss of cell viability at 1 μg/ml.
Setting [17] is: Table 2, loss of cell viability, test conducted at 10 μg/ml.

Where two headings read alike, the source gives them in different places. Bounds are passed on as bounds.

For the compound `Cc1ccc(-n2nc(C(C)(C)C)cc2NC(=O)Nc2ccc(OCCN3CCOCC3)c3ccccc23)cc1` [BIRB 796], the “phosphorylation of p38 MAPKs or JNKs by the upstream kinase MKK6 or MKK4” value in [1] is recorded as “impaired the phosphorylation of p38 MAPKs or JNKs”.
On to `CCC(=O)O[C@]1(C(=O)SCF)[C@H](C)C[C@H]2[C@@H]3C[C@H](F)C4=CC(=O)C=C[C@]4(C)[C@@]3(F)[C@@H](O)C[C@@]21C` [fluticasone propionate], for which, in series [2], the “macrophage accumulation into airways” value is listed as “did not inhibit” and the “neutrophil accumulation into airways” value is “did not inhibit”. In addition, in series [3], the “ovalbumin-mediated lung function changes” value is on record as “inhibited ovalbumin-mediated lung function changes”. Moreover, the “inhibition of LPS-induced neutrophil accumulation” value in series [4] (50 μg/mL (35 μl, bid)) is listed as over 80%.
On to `Cc1ccc(-n2nc(C(C)(C)C)cc2NC(=O)Nc2ccc(Oc3ccnc(NC(=O)N4CCOCC4)c3)c3ccccc23)cc1` [Example 42, N-(4-(4-(3-(3-tert-Butyl-1-p-tolyl-1H-pyrazol-5-yl)ureido)naphthalen-1-yloxy)pyridin-2-yl)morpholine-4-carboxamide], for which the IC50 is under 5000 nM in series [5] (Table 3), under 10 nM in [6] (setting [11]), under 10 nM in series [8] (Table 3) and under 5000 nM in series [9] (Table 3). Besides, the “DU937 (cell viability) MTT assay 4 h” value in series [7] (setting [12]) and in [7] (setting [13]) was “− (<=30%)” each time. In series [4] (0.2 mg/ml intra tracheal, 8 hr pre-dose, BALF 8 h after LPS, mean ± SEM, n = 8), the “Neutrophil numbers in BAL” value is 8.60 ± 1.59 ×10^5/mL. In series [10] (setting [14]), the EC50 is under 10 nM.
In the case of `COCC(=O)Nc1cc(Oc2ccc(NC(=O)Nc3cc(C(C)(C)C)nn3-c3ccc(C)cc3)cc2C)ccn1` [Example 23, N-(4-(4-(3-(3-tert-Butyl-1-p-tolyl-1H-pyrazol-5-yl)ureido)-2-methylphenoxy)pyridin-2-yl)-2-methoxyacetamide], the IC50 in series [5] (Table 2) was under 10 nM; in series [6] (setting [15]), under 10 nM; in series [8] (Table 2), under 5000 nM; in series [9] (Table 2), under 5000 nM. The “DU937 (cell viability) MTT assay 4 h” value in [7] (setting [16]) is reported as “− (<=30%)”. The “DU937 (cell viability) MTT assay 24 h” value in series [7] (setting [16]) was “− (<=30%)”. In [10] (setting [14]), the EC50 is under 10 nM.
Take `Cc1ccc(-n2nc(C(C)(C)C)cc2NC(=O)Nc2ccc(Oc3ccnc(NC(=O)N(C)C)c3)c3ccccc23)cc1` [Example 44, 3-(4-((4-(3-(3-(tert-Butyl)-1-(p-tolyl)-1H-pyrazol-5-yl)ureido)naphthalen-1-yl)oxy)pyridin-2-yl)-1,1-dimethylurea]: the IC50 in series [5] was under 10 nM; in [6] (THP-1, read-out: THP-1 (LPS) TNFα IC50), under 10 nM; in series [8] it was under 10 nM; in series [9] (Table 3), under 5000 nM. The “DU937 (cell viability) MTT assay 4 h” value in series [7] (setting [12]) and in series [7] (setting [13]) was “− (<=30%)” in each case. Also, in [10] (Homo sapiens, read-out: DU937 (LPS) TNFα REC50), the EC50 is under 10 nM.
In the case of `COCCNC(=O)CNC(=O)Nc1cc(Oc2ccc(NC(=O)Nc3cc(C(C)(C)C)nn3-c3ccc(C)cc3)c3ccccc23)ccn1` [Example 62], the IC50 in series [5] (Table 3), in series [6] (setting [11]), in [8] (Table 3) and in [9] (Table 3) was under 10 nM in each case. The “DU937 (cell viability) MTT assay 4 h” value in [7] (setting [12]) and in series [7] (setting [13]) was “− (<=30%)” throughout. In addition, in [10] (setting [14]), the EC50 was under 10 nM.
Turning to `Cc1ccc(-n2nc(C(C)(C)C)cc2NC(=O)Nc2ccc(Oc3ccnc(NC(=O)CN4CCOCC4)c3)c3ccccc23)cc1` [Example 11, N-(4-(4-(3-(3-tert-Butyl-1-p-tolyl-1H-pyrazol-5-yl)ureido)naphthalen-1-yloxy)pyridin-2-yl)-2-morpholinoacetamide], the IC50 was under 10 nM in series [5] (Table 2), under 10 nM in series [6] (setting [15]), under 5000 nM in series [8] (Table 2) and under 10 nM in [9] (Table 2). Moreover, the “DU937 (cell viability) MTT assay 4 h” value in [7] (setting [17]) is “−^$ (<=30%)”. Besides, in series [7] (setting [17]), the “DU937 (cell viability) MTT assay 24 h” value is given as “+^$ (>30%)”. Further, the EC50 in series [10] (setting [14]) was under 10 nM.
Regarding `Cc1ccc(-n2nc(C(C)(C)C)cc2NC(=O)Nc2ccc(Oc3ccnc(NC(N)=O)c3)c3ccccc23)cc1` [Example 29, 4-(4-(3-(3-tert-Butyl-1-p-tolyl-1H-pyrazol-5-yl)ureido)naphthalen-1-yloxy)pyridin-2-yl urea], the half-maximal inhibitory concentration (IC50) is under 5000 nM in [5] (Table 3), under 10 nM in [6] (setting [11]), under 10 nM in [8] (Table 3) and under 10 nM in series [9] (Table 3). Moreover, the “DU937 (cell viability) MTT assay 4 h” value in series [7] (setting [12]) and in series [7] (setting [13]) was “− (<=30%)” throughout. Also, the EC50 in series [10] (setting [14]) was under 10 nM.
On to `Cc1ccc(-n2nc(C(C)(C)C)cc2NC(=O)Nc2ccc(Oc3ccnc(NC(=O)N4CCC(O)CC4)c3)c3ccccc23)cc1` [Example 51, N-(4-(4-(3-(3-tert-Butyl-1-p-tolyl-1H-pyrazol-5-yl)ureido)naphthalen-1-yloxy)pyridin-2-yl)-4-hydroxypiperidine-1-carboxamide], for which the half-maximal inhibitory concentration (IC50) in [5] (Table 3), in [6] (setting [11]), in [8] (Table 3) and in series [9] (Table 3) was under 10 nM each time. Besides, the “DU937 (cell viability) MTT assay 4 h” value is given as “− (<=30%)” in series [7] (setting [12]) and “+ (>30%)” in [7] (setting [13]). Also, in [10] (setting [14]), the EC50 was under 10 nM.
